Data set [1] concerns histamine induced bronchospasm in the guinea pig. Put plainly: histamine induced bronchospasm in the guinea pig (aerosol). It counts as in vivo. The following applies: for Histamine Aerosol: per cent protection for histamine induced bronchospasm: 100 μg/ml aerosol dose, guinea pig. As for the experimental part: (§1) These tests include, among others, a test for effect on isolated smooth muscle from guinea pig ileum and rat uterus, a test for effect on histamine induced bronchospasm in guinea pig, a test for effects on dog blood pressure, a test for induction of diarrhea in mice, and a test for the induction of abortion in early pregnant rats.
^(b) Per cent protection by 100 μg/ml aerosol dose for histamine
induced bronchospasm in the guinea pig.

Data set [2] concerns guinea pig ileum. Put plainly: spasmogenic effect on guinea pig ileum in vitro. The following applies: Cavia porcellus, read-out: Guinea pig Ileum: threshold dose for spasmogenic effect.
Description: as §1
^(d) Threshold dose for spasmogenic effect on guinea pig ileum in […]

The subject of data set [3] is anesthetized dog blood pressure. Put plainly: depressor effect on anesthetized dog blood pressure. The conditions noted are these: for Dog Blood Pressure: relative dose at which oxaprostaglandin derivative has similar action to PGE2 for depressor effect: anesthetized dog. It counts as in vivo.
Description: as §1
^(a) Relative dose at which oxaprostaglandin derivative has similar
action to PGE2 for depressor effect on anesthetized dog blood

Data set [4] has as its system estrogenized rat uterus. Put plainly: spasmogenic effect on estrogenized rat uterus in vitro. The conditions noted are these: read-out: Rat Uterus: threshold dose for spasmogenic effect.
Description: as §1
^(c) Threshold dose for spasmogenic effect on estrogenized rat uterus

For data set [5], the target named is norepinephrine stimulated lipolysis. Put plainly: inhibition of norepinephrine stimulated lipolysis. The following applies: read-out: K: inhibition constant for norepinephrine stimulated lipolysis. The source says: ^(e) Inhibition constant for norepinephrine stimulated lipolysis.
Data set [6] can be described thus: physiological tests taken together (Table I; comparison with natural prostaglandin). The following applies: in words; compared with natural prostaglandin; rat uterus vs guinea pig ileum.
Description: as §1
(§2) On the basis of the difference seen in the rat uterus and guinea pig ileum tests with 19 -oxaprostaglandin E2, one would expect to have a reduction of the unpleasant gastrointestinal side effects which were encountered when natural PGE2 was employed as an abortion inducer (Lancet, 536, 1971).

Data set [7] has as its system early pregnant rat. The data set is described as follows: induction of abortion in early pregnant rats. The data set is classed as in vivo.
Description: as §1, §2

The subject of data set [8] is mice. Put plainly: induction of diarrhea in mice in vivo.
Description: as §1, §2

The results in this text go back to patent US4094899A, “Oxaprostaglandins” (Pfizer Inc., priority 1973, dated 1978).

Molecules are shown by their SMILES.

Regarding `CCOCC[C@H](O)/C=C/[C@H]1[C@H](O)CC(=O)[C@@H]1C/C=C\CCCC(=O)O` [18-oxa PGE2, 9-oxo-11α,15α-dihydroxy-18-oxa-cis-5-trans-13-prostadienoic acid], the “Histamine Aerosol: per cent protection for histamine induced bronchospasm” value (“Histamine Aerosol: per cent protection” below) in data set [1] is reported as 3%. Moreover, the minimal effective concentration in data set [2] and in data set [4] was 0.1 to 0.3 µg/mL each time. Also, the “Dog Blood Pressure: relative dose at which oxaprostaglandin derivative has similar action to PGE2 for depressor effect” value (“Dog Blood Pressure: relative dose” below) in data set [3] was determined as 2. The “selectivity with regard to blood pressure effects” value in data set [3] (in words, from Table I) is on record as “particularly selective with regard to its blood pressure effects”.
Regarding `CCOCC[C@H](O)/C=C/[C@@H]1[C@@H](C/C=C\CCCC(=O)O)[C@@H](O)C[C@H]1O` [18-oxa PGF2α, 9α,11α,15α-trihydroxy-18-oxa-cis-5-trans-13-prostadienoic acid], the minimal effective concentration in data set [2] lay within 0.1 to 0.3 µg/mL; in data set [4] it was 0.3 to 0.6 µg/mL.
For `COCCC[C@H](O)/C=C/[C@H]1[C@H](O)CC(=O)[C@@H]1C/C=C\CCCC(=O)O` [19-oxa PGE2, 9-oxo-11α,15α-dihydroxy-19-oxa-cis-5-trans-13-prostadienoic acid], in data set [1], the “Histamine Aerosol: per cent protection” value was 19%. The Ki in data set [5] came to 2500 nM. Moreover, the minimal effective concentration lay in the range of 0.1 to 0.5 µg/mL in data set [2] and 0.05 to 0.1 µg/mL in data set [4]. Moreover, in data set [6], the tissue selectivity result is listed as “tissue selectivity, particularly 19-oxaprostaglandin E2”. For the same molecule, the “Dog Blood Pressure: relative dose” value in data set [3] is given as 20. In data set [7], the “effectiveness in inducing abortion compared with natural PGE2” value is “as effective as natural PGE2”. For the same molecule, the “effectiveness in inducing diarrhea relative to natural PGE2” value in data set [8] turned out to be 10%.
`COCCC[C@H](O)/C=C/[C@@H]1[C@@H](C/C=C\CCCC(=O)O)[C@@H](O)C[C@H]1O` [19-oxa PGF2α, 9α,11α,15α-trihydroxy-19-oxa-cis-5-trans-13-prostadienoicacid]: the minimal effective concentration in data set [2] and in data set [4] was 0.1 to 0.5 µg/mL each time.
As for `CCOCCC[C@H](O)/C=C/[C@H]1[C@H](O)CC(=O)[C@@H]1C/C=C\CCCC(=O)O` [19-oxa-ω-homo-PGE2, 9-oxo-11α,15α-dihydroxy-19-oxa-cis-5-trans-13-w-homo-prostadienoic acid], the “Histamine Aerosol: per cent protection” value in data set [1] was 38%. Besides, the “bronchodilator selectivity compared with natural PGE2” value in data set [1] (in words, from Table I) is listed as “more selective bronchodilator than natural PGE2”. In addition, in data set [5], the Ki worked out at 4000 nM. For the same molecule, the minimal effective concentration in data set [2] and in data set [4] was 0.1 µg/mL throughout. In addition, the “Dog Blood Pressure: relative dose” value in data set [3] was determined as 4.
Regarding `CCOCCC[C@H](O)/C=C/[C@@H]1[C@@H](C/C=C\CCCC(=O)O)[C@@H](O)C[C@H]1O` [19-oxa-ω-homo-PGF2α, 9α,11α,15α-trihydroxy-19-oxa-cis-5-trans-13-ω-homoprostadienoic acid], the figures for the minimal effective concentration in data set [2] and in data set [4] were at least 0.1 µg/mL and 0.06 to 0.3 µg/mL, respectively.
`CCCCC[C@H](O)/C=C/[C@H]1[C@H](O)CC(=O)[C@@H]1C/C=C\CCCC(=O)O` [PGE2, reference compound]: the “Histamine Aerosol: per cent protection” value in data set [1] came to 75%. The Ki in data set [5] stood at 400 nM. Further, the minimal effective concentration in data set [2] and in data set [4] was 0.01 to 0.03 µg/mL throughout. Further, the “Dog Blood Pressure: relative dose” value in data set [3] amounted to 1.
